These results are taken from US20250120912A1, “SYNERGISTIC NANOMEDICINE DELIVERING TOPOISOMERASE I TOXIN (SN-38) AND INHIBITORS OF POLYNUCLEOTIDE KINASE 3'-PHOSPHATASE (PNKP) FOR ENHANCED TREATMENT OF COLORECTAL CANCER” (THE GOVERNORS OF THE UNIVERSITY OF ALBERTA, priority 2021, published 2025).

A short description of data set [1]: In vitro drug release, dialysis-bag diffusion technique. In kind it is physicochemical. Particulars: dialysis MWCO 3.5 kDa, 4% albumin in water, 37° C., n=3. On the procedure:
[…] The concentrations of SN-38 in collected samples were determined by UV-Vis spectrophotometer (BioTEK, Winooski, VT, USA). Detection was performed at a wavelength of 383 nm. […] All experiments were carried out in triplicate.

Data set [2] relates to HCT116. Briefly: Western blot of cleaved PARP, γ-H2AX, cleaved caspase-3 and -7. In kind it is cell-based, human. Particulars: HCT116, 10 μM, 6 h. How it is done:
(§1) In brief, 1×10^6 cells were plated in each well of 6-well plates 24 h prior to the treatments. […] The cells of 3 controls received only 0.1% DMSO, 10 μM A83, and 10 μM PM26/A83, respectively. Protein extracts for western blot analysis were prepared using commercial RIPA lysis buffer (ThermoFisher Scientific, Canada) supplemented with a cocktail of protease inhibitors (Millipore Sigma, Canada). Protein concentrations were measured using the BCA assay kit (Pierce/ThermoFisher Scientific, Canada) according to the manufacturer's protocol. Equal concentrations of protein were separated by SDS-PAGE and transferred to nitrocellulose membranes. After blocking with 5% skimmed milk in TBST (50 mM Tris-HCl, pH 7.4, 150 mM NaCl, and 0.1% Tween 20), the blots were incubated with the respective primary antibodies (cleaved caspase-3 cat #9661S, cleaved caspase-7 cat #9491S, PARP cat #9542S, phospho-histone H2A.X (Ser139) cat #9718S) and secondary antibody (HRP-linked anti-rabbit IgG cat #7074S) purchased from Cell Signaling Technology (Whitby, ON, Canada). The protein bands were detected using an enhanced chemiluminescence (ECL) based system (Pierce/ThermoFisher Scientific, Canada). The band intensities for the PNKP protein were quantified by performing optical density analysis using ImageJ software. Each experiment was carried out in triplicate.
(In general: A western blot detects proteins with antibodies after separation by electrophoresis.)

Data set [3] deals with HT-29. The description is as above. In kind it is cell-based, human. Particulars: HT-29, 10 μM, 6 h. How it is done:
as §1

Data set [4] is described as follows: Water solubilized level of drug. It is filed as physicochemical.
In another data set the test system is healthy CD-1 mice. Particulars: up to 50 mg/kg intravenously, Cremophor EL: Ethanol or micellar formulation [20]; cited from earlier work.
Data set [5] concerns HCT116. Nature of the data set: In vitro cytotoxicity assay (MTS).
Description: (§2) Two CRC cell lines, HCT116 and HT-29 originally purchased from ATCC were used. The cells were cultured at 37° C. in 5% CO2 in a humidified incubator in a 1:1 mixture of Dulbecco's modified Eagle medium and F12 (DMEM/F12) supplemented with 10% FBS, 50 U/mL penicillin, 50 mg/mL streptomycin, 2 mmol/L L-glutamine, 0.1 mmol/L nonessential amino acids, and 1 mmol/L sodium pyruvate.
(§3) In brief, 2×10^3 cells were plated in each well of 96-well flat-bottomed plates 24 h prior to the treatments. […] After different experimental incubation time points (24, 48, and 72 h), 20 μL of MTS reagent was added in each well and further incubated for 1 h at 37° C. before measuring the absorbance at 490 nm using BioTEK microplate reader. Each experiment was performed in quadruplicates.
Data set [6] concerns HT-29. Briefly: In vitro cytotoxicity assay (MTS). As to conditions: Homo sapiens.
Description: as §2, §3
For data set [7] the following is noted: literature [5]; cited from earlier work.

≈ marks a conversion by molar mass, not a printed value. Where two headings read alike, the source gives them in different places.

For orientation: solubility means the concentration that dissolves in the medium under given conditions. Read a high solubility as much dissolved substance. By IC50 is commonly meant the point on the concentration scale where inhibition reaches its midpoint. On to `COc1ccccc1C(O)C1C=CC2C(=O)N(Cc3cccc4ccccc34)C(=O)C2N1Nc1ccc([N+](=O)[O-])cc1` (centres unmarked) [A83B4C63, 2-[hydroxy (2-methoxyphenyl)methyl]-6-(naphthalene-1-ylmethyl)-1-[(4-nitrophenyl)amino]-2H, 4aH, 7aH-pyrrolo[3,4-b]pyridine-5,7-dione], for which, in data set [1] (over 6 h), the “release of A83B4C63” value is 98.81±2.09%. Moreover, the apoptotic signaling entry with HCT116 [2] and in the data set with HT-29 [3] was “no apoptotic signaling” in each case. In data set [4] (water, without micelles), this compound had a solubility of 1 µM (≈ 0.565 µg/mL). For the same compound, in the data set on healthy CD-1 mice, the “systemic and tissue toxicity” value was “neither systemic nor tissue toxicity”. Further, the IC50 was above 40 µM in the data set with HCT116 [5] (Homo sapiens, HCT-116, read-out: relative IC50 of PNKP inhibitor alone) and above 40 µM in the data set on HT-29 [6] (HT-29, read-out: relative IC50 of PNKP inhibitor alone).

As for `CCc1c2c(nc3ccc(OC(=O)N4CCC(N5CCCCC5)CC4)cc13)-c1cc3c(c(=O)n1C2)COC(=O)[C@]3(O)CC` [Irinotecan, 7-ethyl-10-[4-(1-piperidino)-1-piperidino] carbonyloxycamptothecin], the concentration for half-maximal inhibition (IC50) was 7.3 ± 3.7 µM in the data set with HCT116 [5] (Homo sapiens, HCT-116, 24 h, read-out: IC50 (relative IC50)); 3.9 ± 1.7 µM with HCT116 [5] (Homo sapiens, HCT-116, 48 h, read-out: IC50 (relative IC50)); 6.3 ± 1.6 µM in the data set with HCT116 [5] (Homo sapiens, HCT-116, 72 h, read-out: IC50 (relative IC50)); 10.7 ± 4.5 µM in the data set on HT-29 [6] (HT-29, 24 h, read-out: IC50 (relative IC50)); 11.6 ± 4.3 µM in the data set on HT-29 [6] (HT-29, 48 h, read-out: IC50 (relative IC50)); 7.1 µM in the data set with HT-29 [6] (HT-29, 72 h, read-out: IC50 (relative IC50)).

`CCc1c2c(nc3ccc(O)cc13)-c1cc3c(c(=O)n1C2)COC(=O)[C@]3(O)CC` [SN-38, (S)-4, 11-Diethyl-4,9-di-OH-1, 12-dihydro-4H-2-oxa-6,12α-diaza-dibenzo[b, h]fluorene-3,13-dione]: the “release of SN-38” value in data set [1] (over 6 h) is recorded as 96.46±1.43%. Besides, in data set [1] (over 24 h), the “release of A83B4C63” value stood at 99.81±0.01%. Also, in data set [4] (unconjugated SN-38), the “water solubilized level of SN-38” value was 25 µg/mL. Further, in data set [7], the “potency relative to the prodrug irinotecan” value is listed as 1,000 times. In addition, the IC50 in the data set on HCT116 [5] (read-out: IC50 (relative IC50), HCT116, 24 h, as TOP1 inhibitor concentration, A83B4C63 10 μM where present, n = 4) is 0.14 ± 0.04 µM; in the data set on HCT116 [5] (read-out: IC50 (relative IC50), HCT116, 48 h, as TOP1 inhibitor concentration, A83B4C63 10 μM where present, n = 4), 0.05 ± 0.01 µM; with HCT116 [5] (read-out: IC50 (relative IC50), HCT116, 72 h, as TOP1 inhibitor concentration, A83B4C63 10 μM where present, n = 4), 0.02 ± 0.01 µM.
